Measured values taken from article PMC2641037 (Pharmacogenetics and genomics, 2009).
Structures can show the parent of a compound that is named as a salt. Where two headings read alike, the source gives them in different places.

What was measured:
[1] = test system: Caco-2 cells; conditions: for Papp±SD of montelukast (% of control) / effect on permeability of montelukast: 125 µM competitor; for Papp±SD of montelukast (% of control) / montelukast permeability, % of control: Caco-2; for Papp±SD of montelukast (% of control): control without additional drug; for effect on permeability of montelukast: Caco-2, p<0.05
[2] = biological target: T1, OATP2B1 (Homo sapiens, UniProt O94956); assay: Permeability in OATP2B1 expressing MDCKII cell line; conditions: basolateral → apical, pH 7.5, 1 h 37°C
T1 sequence (O94956 1-709): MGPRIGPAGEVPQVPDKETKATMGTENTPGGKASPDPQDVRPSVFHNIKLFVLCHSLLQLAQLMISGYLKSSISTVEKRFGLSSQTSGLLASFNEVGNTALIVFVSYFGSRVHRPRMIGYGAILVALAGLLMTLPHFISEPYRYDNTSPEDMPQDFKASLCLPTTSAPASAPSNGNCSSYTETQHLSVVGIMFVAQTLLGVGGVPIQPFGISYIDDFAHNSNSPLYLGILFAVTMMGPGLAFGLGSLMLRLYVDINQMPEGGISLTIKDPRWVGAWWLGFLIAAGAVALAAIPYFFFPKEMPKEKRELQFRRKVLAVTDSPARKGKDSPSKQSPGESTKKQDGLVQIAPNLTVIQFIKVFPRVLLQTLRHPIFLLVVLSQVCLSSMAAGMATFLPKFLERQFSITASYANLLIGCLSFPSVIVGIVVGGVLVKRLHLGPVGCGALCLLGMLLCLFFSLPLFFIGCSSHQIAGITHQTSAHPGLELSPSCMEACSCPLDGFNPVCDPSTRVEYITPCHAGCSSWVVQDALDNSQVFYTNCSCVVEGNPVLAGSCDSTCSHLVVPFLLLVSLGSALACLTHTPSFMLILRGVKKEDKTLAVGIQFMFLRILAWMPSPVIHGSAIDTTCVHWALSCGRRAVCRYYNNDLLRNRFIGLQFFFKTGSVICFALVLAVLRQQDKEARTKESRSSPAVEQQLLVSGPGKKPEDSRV

[3] = test system: OATP2B1; conditions: up; substrate dependent; cited from earlier work
[4] = biological target: MDR1 (Homo sapiens, UniProt P08183); assay: ATP consumption by membrane preparations containing MDR1; type: biochemical; conditions: data not shown
MDR1, sequence (P08183 whole entry, species assumed): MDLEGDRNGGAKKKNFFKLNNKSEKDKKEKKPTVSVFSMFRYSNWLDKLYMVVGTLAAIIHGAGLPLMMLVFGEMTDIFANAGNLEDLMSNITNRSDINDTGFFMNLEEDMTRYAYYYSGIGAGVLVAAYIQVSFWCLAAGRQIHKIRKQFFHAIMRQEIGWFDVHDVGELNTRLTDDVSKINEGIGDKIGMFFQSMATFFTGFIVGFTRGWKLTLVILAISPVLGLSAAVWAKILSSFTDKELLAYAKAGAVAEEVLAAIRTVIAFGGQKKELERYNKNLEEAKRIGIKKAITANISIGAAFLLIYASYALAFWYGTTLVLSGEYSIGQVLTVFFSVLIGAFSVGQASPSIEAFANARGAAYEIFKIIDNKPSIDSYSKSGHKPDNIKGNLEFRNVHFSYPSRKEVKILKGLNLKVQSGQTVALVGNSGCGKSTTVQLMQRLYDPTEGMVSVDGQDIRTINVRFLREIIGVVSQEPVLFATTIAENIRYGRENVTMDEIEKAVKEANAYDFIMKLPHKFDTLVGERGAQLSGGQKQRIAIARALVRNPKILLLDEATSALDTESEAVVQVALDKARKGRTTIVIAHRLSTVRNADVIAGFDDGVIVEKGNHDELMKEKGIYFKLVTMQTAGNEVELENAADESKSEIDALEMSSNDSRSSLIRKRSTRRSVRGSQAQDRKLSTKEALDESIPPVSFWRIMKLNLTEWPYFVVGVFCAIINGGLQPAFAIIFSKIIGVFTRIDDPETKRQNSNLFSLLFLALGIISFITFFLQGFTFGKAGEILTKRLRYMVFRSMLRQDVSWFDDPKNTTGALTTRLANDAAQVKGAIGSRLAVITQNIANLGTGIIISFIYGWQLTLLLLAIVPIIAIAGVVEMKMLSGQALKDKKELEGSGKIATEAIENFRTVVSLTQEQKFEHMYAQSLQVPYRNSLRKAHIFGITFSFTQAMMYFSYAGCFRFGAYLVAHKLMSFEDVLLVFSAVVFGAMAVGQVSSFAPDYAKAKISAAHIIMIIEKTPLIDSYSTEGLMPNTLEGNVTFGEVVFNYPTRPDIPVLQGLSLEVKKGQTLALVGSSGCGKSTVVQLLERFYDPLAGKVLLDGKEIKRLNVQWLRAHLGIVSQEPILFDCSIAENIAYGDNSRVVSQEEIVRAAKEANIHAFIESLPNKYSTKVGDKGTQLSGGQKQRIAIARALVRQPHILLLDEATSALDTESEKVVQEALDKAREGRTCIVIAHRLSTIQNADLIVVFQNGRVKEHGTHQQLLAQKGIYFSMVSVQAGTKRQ

[5] = can approach; cited from earlier work
[6] = weak acid; cited from earlier work
[7] = cited from earlier work

| SMILES | Papp±SD of montelukast (% of control) [1] | effect on permeability of montelukast [1] | further results |
| --- | --- | --- | --- |
| CCCCNc1cc(C(=O)O)cc(S(N)(=O)=O)c1Oc1ccccc1 [Bumetanide, bumetanide] | 100±10 % of control | – | – |
| C[C@]12CC[C@@H]3c4ccc(OS(=O)(=O)[O-])cc4CC[C@H]3[C@@H]1CCC2=O.[Na+] [Estrone 3-sulfate, estrone 3-sulfate, sodium salt] | – | – | enhancement of permeability in OATP2B1 expressing cell line relative to control [2]: 280±40% |
| O=c1c(-c2ccc(O)cc2)coc2cc(O)cc(O)c12 [Genistein, genistein] | 110±10 % of control | – | – |
| CC(=O)[C@H]1CC[C@H]2[C@@H]3CCC4=CC(=O)CC[C@]4(C)[C@H]3CC[C@]12C [progesterone] | – | – | montelukast permeability, % of control ([1]; 5 µM progesterone in donor reservoir): 150±10 % of control; montelukast permeability, % of control ([1]; 15 µM progesterone in donor reservoir): 140±10 % of control; montelukast permeability, % of control ([1]; 30 µM progesterone in donor reservoir): 160±10 % of control; allosteric activation of OATP2B1 transport of estrone-3-sulfate [3]: up to 300% |
| O=S(=O)(O)c1cc(N=C=S)ccc1C=Cc1ccc(N=C=S)cc1S(=O)(=O)O [DIDS, 4,4'-Diisothiocyanostilbene-2,2'-disulfonic acid] | 100±20 % of control | – | – |
| CC(C)(O)c1ccccc1CC[C@@H](SCC1(CC(=O)O)CC1)c1cccc(/C=C/c2ccc3ccc(Cl)cc3n2)c1 [montelukast, Montelukast] | – | – | stimulation of ATP consumption by MDR1 membrane preparations [4]: does not stimulate ATP consumption; poor response rate [5]: 60 to 70%; permeability in MDCKII-OATP2B1, % of control (parental MDCKII) [2]: 140±20 % of control; pKa [6]: 5.7; binding to plasma albumin [7]: highly bound |
| C[C@H](CCC(=O)O)[C@H]1CC[C@H]2[C@@H]3[C@H](O)C[C@@H]4C[C@H](O)CC[C@]4(C)[C@H]3CC[C@]12C [Chenodeoxycholic acid, chenodeoxycholic acid, sodium salt] | 90±10 % of control | – | – |
| CN(C)C(=O)CCSC(SCCC(=O)O)c1cccc(/C=C/c2ccc3ccc(Cl)cc3n2)c1 (stereo not drawn) [MK571, MK571, sodium salt] | 130±10 % of control | enhance permeability | – |
| C[C@H](CCC(=O)O)[C@H]1CC[C@H]2[C@@H]3CC[C@@H]4C[C@H](O)CC[C@]4(C)[C@H]3C[C@H](O)[C@]12C [Deoxycholic acid, deoxycholic acid, sodium salt] | 110±10 % of control | – | – |
| Nc1nc2ncc(CNc3ccc(C(=O)N[C@@H](CCC(=O)O)C(=O)O)cc3)nc2c(=O)[nH]1 [Folic acid, folic acid] | 130±20 % of control | enhance permeability | – |
| NS(=O)(=O)c1cc(C(=O)O)c(NCc2ccco2)cc1Cl [Furosemide, furosemide] | 95±8 % of control | – | – |
| C=C(CC)C(=O)c1ccc(OCC(=O)O)c(Cl)c1Cl [Ethacrynic acid, ethacrynic acid] | 100±10 % of control | – | – |
| CC[C@H](C)C(=O)O[C@H]1C[C@H](O)C=C2C=C[C@H](C)[C@H](CC[C@@H](O)C[C@@H](O)CC(=O)O)[C@H]21 [Pravastatin, pravastatin] | 83±8 % of control | cis-inhibit permeability | – |
| C[C@H](CCC(=O)NCCS(=O)(=O)O)[C@H]1CC[C@H]2[C@@H]3[C@H](O)C[C@@H]4C[C@H](O)CC[C@]4(C)[C@H]3C[C@H](O)[C@]12C [Taurocholic acid, taurocholic acid, sodium salt] | 84±9 % of control | cis-inhibit permeability | – |
| CCCN(CCC)S(=O)(=O)c1ccc(C(=O)O)cc1 [Probenecid, probenecid] | 90±10 % of control | – | – |
| O=C1OC(c2ccc(O)c(S(=O)(=O)O)c2)(c2ccc(O)c(S(=O)(=O)O)c2)c2c(Br)c(Br)c(Br)c(Br)c21 [Sulfobromophthalein, sulfobromophthalein] | 72±7 % of control | cis-inhibit permeability | – |
| CN/C(=N/CCSCc1nc[nH]c1C)NC#N [Cimetidine, cimetidine] | 120±10 % of control | enhance permeability | – |
